pIC50: −log10 of the molar value.
biological target: T1, human HSL (Homo sapiens, UniProt Q05469); assay: Human Hormone-Sensitive Lipase (HSL) enzyme inhibition assay (colorimetric, DMPT substrate); type: biochemical; conditions: human full length HSL-His6, 2,3-dimercapto-1-propanol tributyrate substrate, 37° C. 20 minutes, absorbance at 405 nm; read-out: HSL hum IC50
T1 construct: generate a full length human HSL ORF with a 3′-His6 tag; made in house; host or cells: High 5 insect cells (baculovirus, pFast-BAC)
T1 sequence (Q05469 1-1076): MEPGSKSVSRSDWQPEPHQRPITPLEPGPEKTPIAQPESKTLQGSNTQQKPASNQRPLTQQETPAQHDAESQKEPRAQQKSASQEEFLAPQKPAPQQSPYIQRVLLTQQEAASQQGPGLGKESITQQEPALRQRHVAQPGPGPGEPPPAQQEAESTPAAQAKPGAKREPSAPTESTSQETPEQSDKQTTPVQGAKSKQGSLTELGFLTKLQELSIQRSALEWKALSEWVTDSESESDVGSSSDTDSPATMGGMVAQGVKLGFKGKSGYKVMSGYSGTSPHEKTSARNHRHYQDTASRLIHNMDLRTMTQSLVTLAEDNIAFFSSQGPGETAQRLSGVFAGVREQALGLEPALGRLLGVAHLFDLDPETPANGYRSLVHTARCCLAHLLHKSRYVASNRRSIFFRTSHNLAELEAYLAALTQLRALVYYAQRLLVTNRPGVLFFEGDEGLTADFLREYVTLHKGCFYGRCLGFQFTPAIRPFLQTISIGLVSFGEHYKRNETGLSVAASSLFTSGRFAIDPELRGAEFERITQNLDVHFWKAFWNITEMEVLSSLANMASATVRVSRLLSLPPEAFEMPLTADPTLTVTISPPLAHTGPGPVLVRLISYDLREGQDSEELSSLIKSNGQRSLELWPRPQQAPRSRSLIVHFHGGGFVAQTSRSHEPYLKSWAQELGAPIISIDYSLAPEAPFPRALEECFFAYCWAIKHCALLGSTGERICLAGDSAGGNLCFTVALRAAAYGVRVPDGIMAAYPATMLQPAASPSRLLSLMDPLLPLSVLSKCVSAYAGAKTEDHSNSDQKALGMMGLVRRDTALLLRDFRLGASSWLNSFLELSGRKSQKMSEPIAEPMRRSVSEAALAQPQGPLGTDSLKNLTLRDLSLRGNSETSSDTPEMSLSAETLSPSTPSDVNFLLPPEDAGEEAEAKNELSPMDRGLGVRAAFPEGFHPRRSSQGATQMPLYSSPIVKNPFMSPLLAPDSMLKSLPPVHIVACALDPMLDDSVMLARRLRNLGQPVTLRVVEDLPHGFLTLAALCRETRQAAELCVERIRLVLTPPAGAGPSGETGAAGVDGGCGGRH
Description: Production of Human Full Length Hormone Sensitive Lipase-His^6:
1) Cloning: cDNA was prepared from commercial human brain polyA+ RNA and used as a template in overlapping PCR to generate a full length human HSL ORF with a 3′-His6 tag. This full length insert was cloned into the pFast-BAC vector and the DNA-sequence of several single clones was verified. DNA from a correct full length clone with the 3′His6 tag was used to transform the E. coli strain DH10BAC. Resulting bacmid DNA was used to generate a titered baculovirus stock for protein generation. The sequence of the encoded HSL conforms to Swissprot entry Q05469, with the additional C-terminal His6-tag. 2) Protein purification: Culture: 5.5 L, High 5 cells expressing human full length HSL-His^6, 48 hr., containing 25 μM E-64. Cell count: […], 90% viable. Cells were thawed. On ice, cells were suspended in Base Buffer containing 10% glycerol, 25 mM Tris-Cl, 300 mM NaCl, 10 mM imidazole, 10 mM 2-mercaptoethanol, 2 μg pepstatin/ml, 2 μg leupeptin/ml, 2 μg antipain/ml, pH 8.0 at 4° C. in a final volume of 475 ml with 3.75×10^7 cells/ml. […] was done at 3×30 sec., Lubrol PX was added to 0.2% final concentration followed by stirring for 15 min. at 4° C. and centrifugation at 25 k×g, 60 min., 4° C. Soluble proteins were mixed with 60 ml of pre-washed and equilibrated Ni-NTA Agarose (Qiagen 30210) followed by tumbling end-over-end, 45 min., 4° C., centrifugation 1000 rpm 5 min and letting resin settle 5 min. Supernatant was removed, the resin washed in the centrifuge vessel using 5 volumes of Base Buffer containing 0.2% Lubrol PX. Centrifugation was done again, then the supernatant discarded. The resin was poured onto a 0.8 μm membrane in a disposable filter unit (Nalge 450-0080), and washed with 5 volumes of Base Buffer containing 0.2% Lubrol PX. It was then washed with 30 volumes of Base Buffer containing 60 mM imidazole pH 7.5 at 4° C. The protein was eluated with 5 volumes of 25 mM Tris-Cl, 300 mM NaCl, 200 mM imidazole, 10 mM 2-mercaptoethanol, pH 7.5 at 4° C. by tumbling resin with buffer end-over-end, 30 min., 4° C. The resin was captured on a 0.2 μm membrane disposable filter unit (Millipore SCGP U02 RE) and the eluate collected in the reservoir. The eluate was concentrated using a 30 k MWCO centrifugal filter device (Sartorius Vivascience Vivacell 100, VC1022), to 20 ml. It was then dialyzed overnight at 4° C., two times against 2 L of 10% glycerol, 25 mM Tris-Cl, 300 mM NaCl, 0.2 mM EDTA, 0.2 mM DTT, pH 7.5 at 4° C. The protein was filtered using a 0.22 μm disposable filter unit (Millipore SCGP00525). The protein concentration was calculated from absorbance at 280 nm, using 280=0.67 cm-1 mg-1. Yield was 235 mg, total. The protein was stored at −80° C. Human Hormone-Sensitive Lipase (HSL) Enzyme Inhibition Assay:
HSL enzyme activity was measured by a colorimetric assay using 2,3-dimercapto-1-propanol tributyrate (Aldrich, St. Louis, Mo.) as a substrate. Typically, 1.5 mM 2,3-dimercapto-1-propanol tributyrate (DMPT) in 100 mM MOPS, pH 7.2, 0.2 mg/ml fatty acid-free BSA was prepared by sonication at 4° C. to homogenous suspension. Test compounds (2 mM stock in DMSO) were diluted 3 fold in series in DMSO. Compound solutions were diluted 24 fold in 1.5 mM DMPT containing solution and 18 ul per well was added to 384-well microplates (Corning Costar). Twelve microliters per well of human HSL (15 ug/ml) was added and the reaction mixture was incubated at 37° C. for 20 minutes. Six microliters of 12 mM dithio-bis-(2-nitrobenzoic acid) (DTNB) in DMSO plus 1.2% SDS and 0.6% Triton X-100 were added and the mixture was incubated at room temperature for 15 minutes. Product production was monitored by reading absorbance at 405 nm on an Envision Reader (PerkinElmer Life and Analytical Sciences, Shelton, Conn.).

Row | pIC50 | Compound
1 | 6.25 | O=C1N(c2ccc(C3CC3)cc2)CC[C@]12CC[C@H](O)CC2 [Example 39, (5α,8α)-2-(4-Cyclopropyl-phenyl)-8-hydroxy-2-aza-spiro[4.5]decan-1-one]
2 | 5.34 | COc1ccc(N2CC[C@]3(CC[C@H](OCc4ccccc4)CC3)C2=O)cc1 [Example 40, (5α,8α)-8-Benzyloxy-2-(4-methoxy-phenyl)-2-aza-spiro[4.5]decan-1-one]
3 | 6.41 | CCO[C@H]1CC[C@]2(CCN(c3ccc(OC(F)(F)F)cc3)C2=O)CC1 [Example 41, (5α,8α)-8-Ethoxy-2-(4-trifluoromethoxy-phenyl)-2-aza-spiro[4.5]decan-1-one]
4 | 6.49 | CCCO[C@H]1CC[C@]2(CCN(c3ccc(OC(F)(F)F)cc3)C2=O)CC1 [Example 42, (5α,8α)-8-Propoxy-2-(4-trifluoromethoxy-phenyl)-2-aza-spiro[4.5]decan-1-one]
5 | 6.13 | CCc1ccc(N2CC[C@]3(CC[C@H](OCc4ccccc4)CC3)C2=O)cc1 [Example 43, (5α,8α)-8-Benzyloxy-2-(4-ethyl-phenyl)-2-aza-spiro[4.5]decan-1-one]
6 | 5.83 | CCCNC(=O)O[C@H]1CC[C@]2(CCN(c3ccc(CC)cc3)C2=O)CC1 [Example 44, Propyl-carbamic acid [(5α,8α)-2-(4-ethyl-phenyl)-1-oxo-2-aza-spiro[4.5]dec-8-yl]ester]
7 | 5.95 | CCc1ccc(N2CC[C@]3(CC[C@H](OC(=O)NCc4cccc(F)c4)CC3)C2=O)cc1 [Example 45, (3-Fluoro-benzyl)-carbamic acid [(5α,8α)-2-(4-ethyl-phenyl)-1-oxo-2-aza-spiro[4.5]dec-8-yl]ester]
8 | 5.37 | COc1ccc(N2CC[C@]3(CC[C@H](Oc4ccccc4)CC3)C2=O)cc1 [Example 46, (5α,8α)-2-(4-Methoxy-phenyl)-8-phenoxy-2-aza-spiro[4.5]decan-1-one]
9 | 5.17 | COc1ccc(N2CCC3(CC=CCC3)C2=O)cc1 (centres unmarked) [Example 47, 2-(4-Methoxy-phenyl)-2-aza-spiro[4.5]dec-7-en-1-one]
10 | 5.77 | COc1ccc(N2CC[C@]3(CC[C@@H](Oc4ccccc4)CC3)C2=O)cc1 [Example 48, (5α,8β)-2-(4-Methoxy-phenyl)-8-phenoxy-2-aza-spiro[4.5]decan-1-one]
11 | 6.70 | O=C1N(c2ccc(OC(F)(F)F)cc2)CC[C@]12CC=CCC2 [Example 50, 2-(4-Trifluoromethoxy-phenyl)-2-aza-spiro[4.5]dec-7-en-1-one]
12 | 7.70 | O=C1N(c2ccc(OC(F)(F)F)cc2)CC[C@]12CC[C@@H]([S+]([O-])c1ccccc1)CC2 (stereo partly drawn) [Example 51, (5α,8β)-8-Benzenesulfinyl-2-(4-trifluoromethoxy-phenyl)-2-aza-spiro[4.5]decan-1-one]
13 | 5.64 | O=C1N(c2ccc(OC(F)(F)F)cc2)CC[C@]12CC[C@H](Sc1ccccc1)CC2 [Example 52, (5α,8α)-8-Phenylsulfanyl-2-(4-trifluoromethoxy-phenyl)-2-aza-spiro[4.5]decan-1-one]
14 | 7.52 | O=C1N(c2ccc(OC(F)(F)F)cc2)CC[C@]12CC[C@@H](S(=O)(=O)c1ccccc1)CC2 [Example 53, (5α,8β)-8-Benzenesulfonyl-2-(4-trifluoromethoxy-phenyl)-2-aza-spiro[4.5]decan-1-one]
15 | 6.19 | O=C1CCC2(CC1)CCN(c1ccc(OC(F)(F)F)cc1)C2=O [Example 54, 2-(4-Trifluoromethoxy-phenyl)-2-aza-spiro[4.5]decane-1,8-dione]
16 | 7.70 | CCC[C@]1(O)CC[C@]2(CCN(c3ccc(OC(F)(F)F)cc3)C2=O)CC1 [Example 55, (5α,8α)-8-Hydroxy-8-propyl-2-(4-trifluoromethoxy-phenyl)-2-aza-spiro[4.5]decan-1-one]
17 | 6.24 | CCC[C@]1(O)CC[C@@]2(CCN(c3ccc(OC(F)(F)F)cc3)C2=O)CC1 [Example 56, (5α,8β)-8-Hydroxy-8-propyl-2-(4-trifluoromethoxy-phenyl)-2-aza-spiro[4.5]decan-1-one]
18 | 7.15 | C[C@]1(O)CC[C@]2(CCN(c3ccc(OC(F)(F)F)cc3)C2=O)CC1 [Example 57, (5α,8α)-8-Hydroxy-8-methyl-2-(4-trifluoromethoxy-phenyl)-2-aza-spiro[4.5]decan-1-one]
19 | 6.02 | C[C@]1(O)CC[C@@]2(CCN(c3ccc(OC(F)(F)F)cc3)C2=O)CC1 [Example 58, (5α,8β)-8-Hydroxy-8-methyl-2-(4-trifluoromethoxy-phenyl)-2-aza-spiro[4.5]decan-1-one]
20 | 5.80 | CC1=CC[C@@]2(CC1)CCN(c1ccc(OC(F)(F)F)cc1)C2=O [Example 59, 8-Methyl-2-(4-trifluoromethoxy-phenyl)-2-aza-spiro[4.5]dec-7-en-1-one]
21 | 7.52 | CC[C@]1(O)CC[C@]2(CCN(c3ccc(OC(F)(F)F)cc3)C2=O)CC1 [Example 60, (5α,8α)-8-Ethyl-8-hydroxy-2-(4-trifluoromethoxy-phenyl)-2-aza-spiro[4.5]decan-1-one]
22 | 5.68 | CC[C@]1(O)CC[C@@]2(CCN(c3ccc(OC(F)(F)F)cc3)C2=O)CC1 [Example 61, (5α,8β)-8-Ethyl-8-hydroxy-2-(4-trifluoromethoxy-phenyl)-2-aza-spiro[4.5]decan-1-one]
23 | 7.70 | O=C1N(c2ccc(OC(F)(F)F)cc2)CC[C@]12CC[C@@](O)(Cc1ccccc1)CC2 [Example 62, (5α,8α)-8-Benzyl-8-hydroxy-2-(4-trifluoromethoxy-phenyl)-2-aza-spiro[4.5]decan-1-one]

Reference: US8440710B2, “HSL inhibitors useful in the treatment of diabetes” (Hoffmann-La Roche Inc., priority 2009, dated 2013)
